Measured values: patent US9844546B2, “Antibody against human HIF hydroxylase” (OXFORD UNIVERSITY INNOVATION LIMITED, priority 2001, dated 2017)

Tests used:
U2OS cells = U2OS cells stably transfected with doxycycline-inducible NODD or CODD; format: cell-based, human
Protocol: To explore further the therapeutic potential of NODD and CODD polypeptides to activate endogenous HIF we stably transfected U2OS cells with doxycycline-inducible NODD (doxNODD) and CODD constructs (doxCODD) encoding identical sequences to those used for transient transfections.
Cells stably transfected with NODD or CODD controlled by the tetracycline-inducible system were exposed to doxycycline. Cell extracts were prepared 0, 16, 24 and 48 hours after exposure to doxycycline. The extracts of doxNODD (HIF-1α aa343-417), doxCODD (HIF-1α aa549-82) and control cells (empty vector) were then immunoblotted for HIF-1α protein. Increased HIF-1α signals were detected from 16-48 hours following doxycycline administration in doxNODD and doxCODD cells but not in empty vector cells. Levels of HIF-1α induced by hypoxia were also measured for comparison. The endogenous HIF-1α induction was doxycycline dose (0.2-3.2 μg/ml) and time dependent, peaking after 48 hours. Maximal levels were about 20% and about 70% of HIF-1α levels seen following hypoxic or DFO treatment of the doxNODD and doxCODD cells respectively. […]
Stably transfected cell lines were generated by transfecting U2OS cells bearing the reverse tetracycline responsive transactivator ^34 and the tetKRAB silencer construct ^36 with pUHD/HIF plasmids. Following selection in G418 (1 mg/ml) individual colonies were picked. DoxNODD (F21) and doxCODD (myc19) clones expressed pUHD/HIF-1aa343-417/3NLS/c-myc and pUHD/HIF-1α aa549-82/3NLS/c-myc respectively. […]
Cell extracts were prepared in buffer (8M urea, 10% glycerol, 1% SDS, 5 mM DTT, 10 mM Tris/pH 6.8), separated by SDS-PAGE and transferred to Immobilon-P membrane (Millipore). Primary antibodies against HIF-1α, c-myc tag and HA tag were from Transduction Laboratories, Innogenex and Roche Molecular respectively. […]

U2OS and Hep3B cells = assay: HRE-dependent luciferase reporter assay after transient transfection of NODD/CODD plasmids; format: cell-based, human; conditions: normoxic conditions, 24 hours
Text: Since normoxic HIFα degradation is saturable ^17 and depends on sub-regions within the ODD we tested whether peptides encoding the HIF-1α amino terminal ODD (NODD) and carboxy terminal ODD (CODD) ^21 could affect HIF activity as measured by hypoxia response element (HRE)-dependent reporter gene expression. Briefly, Degradation is prevented by the NODD and CODD polypeptides competing for prolyl hydroxylation and/or VHL binding, thereby blocking subsequent ubiquitination. We constructed plasmids encoding NODD (HIF-1-α aa 343-417) or CODD (HIF-1-α aa 549-582) linked to nuclear localisation sequences and a c-myc epitope tag. These plasmids were transiently co-transfected into U2OS and Hep3B cells with an HRE-dependent luciferase reporter plasmid. […]
For reporter gene assays DNA fragments encoding HIF-1α amino acids 343-417, 380-417, 390-417, 390-410, 343-400, 530-95, 530-82, 549-82, 556-74 and 530-62 were generated by PCR using oligonucleotides containing 5′ SacII or 3′ AscI sites and inserted into a pCMV/myc/nuc (Invitrogen) derivative bearing these sites in frame with the NLS and epitope tag. […] To generate tet-operator dependent plasmids the open reading frames from the aa343-417 and aa549-82 constructs were subcloned into pUHD 10 ^34. […]

[1] = tested on: human microvascular endothelial cells (HMEC-1); assay: Tubule formation assay, co-culture with HMEC-1; format: cell-based; conditions: intermittent doxycycline over 5 days
Text: Artificial activation of the HIF signalling pathway using the methods of the invention should induce angiogenesis and will therefore be of potential therapeutic use in ischaemic disease. We tested the effect of polypeptide induced HIF stabilisation in an in vitro angiogenesis assay, co-culturing human microvascular endothelial cells (HMEC-1) with empty vector transfected or doxCODD cells. In view of the possibility of sustained activation inducing a negative feedback loop we opted to test the effects of intermittent induction. […] As a positive control epidermal Growth Factor (EGF; 5 ng/ml), which is known to induce growth of HMEC-1, was used. To extend these observations into an in vivo model we assayed the effects of injecting tat-fusion proteins into polyurethane sponges implanted subcutaneously in mice. Intermittent injections on days 1, 2, 4 and 5 led to a markedly accelerated angiogenic response assayed on day 7 when compared with sponges injected with proline mutant fusion proteins, excluding a contribution from the tat component ^28. […]
doxCODD or empty vector cells were co-cultivated with human microvascular endothelial cells (HMEC-1) in a ratio of 2:1 in DMEM 10% doxycycline free FCS (Clontech), 2 mM Glutamine and 100 U/ml Penicillin/100 μg/ml Streptomycin. […] Endothelial cells were detected using antibodies to von Willebrand factor (vWF) (Dako).

VHL E3 ubiquitin ligase = molecular target: T1, VHL E3 ubiquitin ligase (Homo sapiens, UniProt P40337); assay: VHL E3 interaction assay with 35S-labelled tat-ODD IVTT products; format: binding; conditions: after modification by cell extracts
T1 construct: expressed in transfected cells; host or cells: 786-0 cells stably transfected with pcDNA3 VHL.HA (whole extract, anti-HA immunoprecipitation)
T1 sequence (P40337 whole entry): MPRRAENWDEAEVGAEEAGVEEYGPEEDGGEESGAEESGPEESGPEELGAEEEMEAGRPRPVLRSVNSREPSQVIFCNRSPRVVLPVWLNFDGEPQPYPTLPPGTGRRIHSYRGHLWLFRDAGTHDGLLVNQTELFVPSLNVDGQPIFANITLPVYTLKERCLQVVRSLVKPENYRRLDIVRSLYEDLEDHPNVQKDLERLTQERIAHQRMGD
T1 sequence (Q15370 whole entry partner): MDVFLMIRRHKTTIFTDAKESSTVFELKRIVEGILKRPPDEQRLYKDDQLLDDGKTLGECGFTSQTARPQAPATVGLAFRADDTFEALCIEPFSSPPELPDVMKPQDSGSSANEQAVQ
T1 sequence (Q15369 whole entry partner): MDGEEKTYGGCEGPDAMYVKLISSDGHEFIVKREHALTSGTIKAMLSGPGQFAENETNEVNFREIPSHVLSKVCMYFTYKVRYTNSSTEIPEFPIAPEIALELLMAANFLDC
T1 sequence (Q13617 whole entry partner): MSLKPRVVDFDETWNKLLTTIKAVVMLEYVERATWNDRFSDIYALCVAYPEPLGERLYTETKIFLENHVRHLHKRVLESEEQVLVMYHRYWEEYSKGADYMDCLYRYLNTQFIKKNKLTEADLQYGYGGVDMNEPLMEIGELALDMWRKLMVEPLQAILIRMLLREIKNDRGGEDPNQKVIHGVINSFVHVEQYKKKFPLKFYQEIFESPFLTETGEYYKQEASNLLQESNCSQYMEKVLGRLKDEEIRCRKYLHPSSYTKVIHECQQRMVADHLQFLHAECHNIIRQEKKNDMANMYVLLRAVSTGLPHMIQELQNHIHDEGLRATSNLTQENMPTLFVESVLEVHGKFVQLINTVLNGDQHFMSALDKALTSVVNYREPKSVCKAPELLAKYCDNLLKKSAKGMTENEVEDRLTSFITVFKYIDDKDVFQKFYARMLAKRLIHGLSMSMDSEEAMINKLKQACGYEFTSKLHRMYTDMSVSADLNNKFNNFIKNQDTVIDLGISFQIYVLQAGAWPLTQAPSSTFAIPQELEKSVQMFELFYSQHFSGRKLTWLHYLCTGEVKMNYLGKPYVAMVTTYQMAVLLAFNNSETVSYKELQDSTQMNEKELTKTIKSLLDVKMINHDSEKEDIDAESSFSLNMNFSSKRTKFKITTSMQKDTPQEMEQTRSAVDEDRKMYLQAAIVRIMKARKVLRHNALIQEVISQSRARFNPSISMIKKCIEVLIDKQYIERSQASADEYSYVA
T1 sequence (P62877 whole entry partner): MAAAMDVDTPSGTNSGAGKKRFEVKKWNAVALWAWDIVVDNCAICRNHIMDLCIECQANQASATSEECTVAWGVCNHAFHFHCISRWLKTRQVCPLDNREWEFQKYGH
Text: Concordant with the ubiquitination assays discussed above NODD (HIF-1α 343-417) and CODD (HIF-1α 549-582) polypeptides, but not their corresponding proline mutants (HIF-1α 343-417/P402A and HIF-1α 549-582/P564G), bound to VHL E3 ubiquitin ligase after modification by cell extracts. The ^35S-methionine labelled recombinant polypeptides therefore interacted with VHL, supporting the results of the ubiquitination experiments discussed above. The interaction was enhanced by the presence of cell extracts which promote hydroxylation of the prolines at positions 402 and 564 ^19. In contrast, no binding occurred using peptides in which prolines were mutated.
For VHL E3 interaction assays ^35S-methionine labelled HIF-1a substrates were prepared by transcription/translation using TnT7 rabbit reticulocyte lysate (Promega). 100 μM DFO was added to the reaction to suppress prolyl hydroxylase activity of the reticulocyte lysate. Substrate modification was achieved by incubation of HIF-1α translate with RCC4 cell lysate in the presence of ferrous chloride (100 μM). Interaction with VHL E3 was analysed as described previously ^21.

CODD: HIF-1α carboxy terminal ODD polypeptide (aa 549-582) with nuclear localisation sequences and c-myc tag, plasmid expressed
3H-glucose uptake (U2OS cells; 24 hours induction with doxycycline, versus empty vector cells): enhanced uptake of ^3H-glucose | ubiquitination of exogenous 35S-methionine labelled HIF-1α (U2OS cells; cell extracts versus empty vector extracts): markedly reduced | Maximal HIF-1α level relative to hypoxic or DFO treatment (U2OS cells; doxycycline 0.2-3.2 μg/ml, peaking after 48 hours): about 70% | Glut-1 mRNA (ribonuclease protection) (U2OS cells; doxycycline repeatedly added, 0-8 days): increased for the first 4 days and then declined | CAIX mRNA (ribonuclease protection) (U2OS cells; doxycycline, 24 and 48 hours): markedly induced mRNA levels | HRE-dependent relative luciferase activity (U2OS and Hep3B cells): increased relative luciferase activity | tubule formation of co-cultured endothelial cells [1]: assembly of co-cultured endothelial cells into complex tubular structures | binding to VHL E3 ubiquitin ligase (VHL E3 ubiquitin ligase): bound
